The source of these data is US10435399B2, “HDAC6 inhibitory heterocyclic compound” (TAKEDA PHARMACEUTICAL COMPANY LIMITED, priority 2017, dated 2019).

In one assay the target is T1, HDAC6 enzyme (Homo sapiens, UniProt Q9UBN7).
T1 construct: transducing full length HDAC6 gene into Sf-9 insect cells; GST; purchased SignalChem; host or cells: Sf-9 insect cells
T1 sequence (Q9UBN7 1-1215): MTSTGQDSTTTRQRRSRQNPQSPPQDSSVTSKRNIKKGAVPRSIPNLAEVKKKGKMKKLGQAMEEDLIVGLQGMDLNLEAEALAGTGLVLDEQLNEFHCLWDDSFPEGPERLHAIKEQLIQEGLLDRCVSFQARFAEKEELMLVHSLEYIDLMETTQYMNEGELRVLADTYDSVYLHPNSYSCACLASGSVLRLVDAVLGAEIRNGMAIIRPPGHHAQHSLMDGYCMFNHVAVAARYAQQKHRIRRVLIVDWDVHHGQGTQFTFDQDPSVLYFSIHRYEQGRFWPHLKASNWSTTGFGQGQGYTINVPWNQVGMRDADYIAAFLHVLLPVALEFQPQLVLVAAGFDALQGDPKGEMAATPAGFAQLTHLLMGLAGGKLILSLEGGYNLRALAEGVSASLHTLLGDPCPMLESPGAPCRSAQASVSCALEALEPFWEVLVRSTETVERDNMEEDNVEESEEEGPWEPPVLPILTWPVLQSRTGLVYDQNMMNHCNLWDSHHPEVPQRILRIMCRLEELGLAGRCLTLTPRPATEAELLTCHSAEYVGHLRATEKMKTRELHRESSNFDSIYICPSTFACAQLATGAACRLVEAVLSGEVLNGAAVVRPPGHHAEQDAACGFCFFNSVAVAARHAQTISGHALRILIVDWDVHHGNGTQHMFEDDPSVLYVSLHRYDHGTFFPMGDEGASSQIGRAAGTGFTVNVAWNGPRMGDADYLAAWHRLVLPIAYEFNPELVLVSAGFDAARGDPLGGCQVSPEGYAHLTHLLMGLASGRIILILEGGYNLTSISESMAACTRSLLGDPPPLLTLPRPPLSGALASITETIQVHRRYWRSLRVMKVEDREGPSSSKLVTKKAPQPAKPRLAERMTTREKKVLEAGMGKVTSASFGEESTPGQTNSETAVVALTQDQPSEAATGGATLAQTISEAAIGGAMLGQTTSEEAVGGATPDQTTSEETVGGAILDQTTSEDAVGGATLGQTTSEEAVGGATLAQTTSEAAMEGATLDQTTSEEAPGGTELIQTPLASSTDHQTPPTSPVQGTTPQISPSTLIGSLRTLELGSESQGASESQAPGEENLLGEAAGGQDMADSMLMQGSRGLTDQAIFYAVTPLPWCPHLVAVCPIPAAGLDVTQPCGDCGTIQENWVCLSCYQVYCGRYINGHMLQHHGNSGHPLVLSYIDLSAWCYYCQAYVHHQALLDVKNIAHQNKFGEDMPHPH
Put plainly: HDAC6 enzyme inhibitory activity (HDAC-Glo I/II Assay kit). The class given is biochemical. To be noted: 10 μM; wells without enzyme = 100% inhibition. The gist of the method:
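Test compound is preincubated 60 min at RT with full-length insect-cell HDAC6 in Tris-HCl pH 7.5 with 135 mM NaCl and 1 mM MgCl2. A 20 min room-temperature HDAC-Glo reaction follows, with luminescent read-out.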
Take `O=C(N[C@@H]1CCCC[C@H]1N1Cc2ccc(-c3nnc(C(F)F)o3)cc2C1=O)C1CC12CCC2` (stereo partly drawn) [Example 119, N-((1R,2R)-2-(6-(5-(difluoromethyl)-1,3,4-oxadiazol-2-yl)-1-oxo-1,3-dihydro-2H-isoindol-2-yl)cyclohexyl)spiro[2.3]hexane-1-carboxamide (optical isomer)]: the “HDAC6 inhibitory rate (%) (10 μM)” value was found to be 100%. On to `O=C(N[C@@H]1CCCC[C@H]1N1Cc2ccc(-c3nnc(C(F)F)o3)cc2C1=O)C1CC1(F)F` (stereo partly drawn) [Example 121, N-((1R,2R)-2-(6-(5-(difluoromethyl)-1,3,4-oxadiazol-2-yl)-1-oxo-1,3-dihydro-2H-isoindol-2-yl)cyclohexyl)-2,2-difluorocyclopropanecarboxamide (optical isomer)], for which the “HDAC6 inhibitory rate (%) (10 μM)” value is 100%.

The assay is the same for the next values; noted with them: 10 μM; wells without enzyme = 100% inhibition; read-out: HDAC6 inhibitory rate (%) (10 μM).
Take `O=C1c2cc(-c3nnc(C(F)F)o3)ccc2CN1[C@@H]1CCCC[C@H]1NC(=O)C1(c2ccc(F)cc2)CCC1` [Example 109, N-((1R,2R)-2-(6-(5-(difluoromethyl)-1,3,4-oxadiazol-2-yl)-1-oxo-1,3-dihydro-2H-isoindol-2-yl)cyclohexyl)-1-(4-fluorophenyl)cyclobutanecarboxamide]: the inhibition at 10 µM came out at 97%. On the same count and under the same terms, the figure for `O=C(CC1CCC1)N[C@@H]1CCCC[C@H]1N1Cc2ccc(-c3nnc(C(F)F)o3)cc2C1=O` [Example 110, 2-cyclobutyl-N-((1R,2R)-2-(6-(5-(difluoromethyl)-1,3,4-oxadiazol-2-yl)-1-oxo-1,3-dihydro-2H-isoindol-2-yl)cyclohexyl)acetamide] is 98%; for `O=C1c2cc(-c3nnc(C(F)F)o3)ccc2CN1c1ccccc1Br` [Example 112, 2-(2-bromophenyl)-6-(5-(difluoromethyl)-1,3,4-oxadiazol-2-yl)isoindolin-1-one] it is 95%. On to `O=C(N[C@@H]1CCCC[C@H]1N1Cc2ccc(-c3nnc(C(F)F)o3)cc2C1=O)[C@H]1CCCO1` [Example 113, (2R)-N-((1R,2R)-2-(6-(5-(difluoromethyl)-1,3,4-oxadiazol-2-yl)-1-oxo-1,3-dihydro-2H-isoindol-2-yl)cyclohexyl)tetrahydrofuran-2-carboxamide], for which the inhibition at 10 µM was determined as 102%. As for `O=C(N[C@@H]1CCCC[C@H]1N1Cc2ccc(-c3nnc(C(F)F)o3)cc2C1=O)[C@H]1CCOC1` [Example 114, (3S)-N-((1R,2R)-2-(6-(5-(difluoromethyl)-1,3,4-oxadiazol-2-yl)-1-oxo-1,3-dihydro-2H-isoindol-2-yl)cyclohexyl)tetrahydrofuran-3-carboxamide], the inhibition at 10 µM was found to be 100%. On the same count and under the same terms, under `C[C@H](C1CC1)N1Cc2ccc(-c3nnc(C(F)F)o3)cc2C1=O` [Example 115, 2-((1R)-1-cyclopropylethyl)-6-(5-(difluoromethyl)-1,3,4-oxadiazol-2-yl)isoindolin-1-one] stands 96%; under `C[C@@H](C1CC1)N1Cc2ccc(-c3nnc(C(F)F)o3)cc2C1=O` [Example 116, 2-((1S)-1-cyclopropylethyl)-6-(5-(difluoromethyl)-1,3,4-oxadiazol-2-yl)isoindolin-1-one], 98%. Take `CCCCO[C@H]1CC[C@H](N2Cc3ccc(-c4nnc(C(F)F)o4)cc3C2=O)CC1` [Example 117, 2-(trans-4-butoxycyclohexyl)-6-(5-(difluoromethyl)-1,3,4-oxadiazol-2-yl)isoindolin-1-one]: the inhibition at 10 µM is 96%.

Take `O=C1c2cc(-c3nnc(C(F)F)o3)ccc2CN1C1CCOCC1` [Example 122, 6-(5-(difluoromethyl)-1,3,4-oxadiazol-2-yl)-2-(tetrahydro-2H-pyran-4-yl)isoindolin-1-one]: the inhibition at 10 µM was found to be 95%. As for `O=C1c2cc(-c3nnc(C(F)F)o3)ccc2CN1[C@@H]1CCCC[C@H]1n1ccnn1` [Example 123], the inhibition at 10 µM worked out at 101%. Same read-out and setting: the figure for `O=C1CCCN1[C@@H]1CCCC[C@H]1N1Cc2c(F)cc(-c3nnc(C(F)F)o3)cc2C1=O` [Example 124, 6-(5-(difluoromethyl)-1,3,4-oxadiazol-2-yl)-4-fluoro-2-((1R,2R)-2-(2-oxopyrrolidin-1-yl)cyclohexyl)isoindolin-1-one] is 99%.

Consider `CC(C)(C)OC(=O)N1CC[C@@H](N2Cc3ccc(-c4nnc(C(F)F)o4)cc3C2=O)[C@@H](c2ccccc2)C1` [Example 125, tert-butyl (3S,4R)-4-(6-(5-(difluoromethyl)-1,3,4-oxadiazol-2-yl)-1-oxo-1,3-dihydro-2H-isoindol-2-yl)-3-phenylpiperidine-1-carboxylate], for which the inhibition at 10 µM was found to be 98%. The same measure, in the same setting: the figure for `O=C1c2cc(-c3nnc(C(F)F)o3)ccc2CN1[C@@H]1CCNC[C@@H]1c1ccccc1` [Example 126, 6-(5-(difluoromethyl)-1,3,4-oxadiazol-2-yl)-2-((3S,4R)-3-phenylpiperidin-4-yl)isoindolin-1-one] is 100%; for `CC(=O)N1CC[C@@H](N2Cc3ccc(-c4nnc(C(F)F)o4)cc3C2=O)[C@@H](c2ccccc2)C1` [Example 127, 2-((3S,4R)-1-acetyl-3-phenylpiperidin-4-yl)-6-(5-(difluoromethyl)-1,3,4-oxadiazol-2-yl)isoindolin-1-one] it is 100%; for `COC(=O)N1CC[C@@H](N2Cc3ccc(-c4nnc(C(F)F)o4)cc3C2=O)[C@@H](c2ccccc2)C1` [Example 128, methyl (3S,4R)-4-(6-(5-(difluoromethyl)-1,3,4-oxadiazol-2-yl)-1-oxo-1,3-dihydro-2H-isoindol-2-yl)-3-phenylpiperidine-1-carboxylate] it is 100%.

Take `O=C1c2cc(-c3nnc(C(F)F)o3)ccc2CN1c1ccccc1-c1ccccc1` [Example 129, 2-(biphenyl-2-yl)-6-(5-(difluoromethyl)-1,3,4-oxadiazol-2-yl)isoindolin-1-one]: the inhibition at 10 µM was determined as 100%.

Turning to `CCOC(=O)N1CCC(N2Cc3ccc(-c4nnc(C(F)F)o4)cc3C2=O)CC1` [Example 130, ethyl 4-(6-(5-(difluoromethyl)-1,3,4-oxadiazol-2-yl)-1-oxo-1,3-dihydro-2H-isoindol-2-yl)piperidine-1-carboxylate], the inhibition at 10 µM was 93%. In the case of `O=C(N[C@@H]1CCCC[C@H]1N1Cc2ccc(-c3nnc(C(F)F)o3)cc2C1=O)OCC(F)F` [Example 131, 2,2-difluoroethyl ((1R,2R)-2-(6-(5-(difluoromethyl)-1,3,4-oxadiazol-2-yl)-1-oxo-1,3-dihydro-2H-isoindol-2-yl)cyclohexyl)carbamate], the inhibition at 10 µM came to 99%. For the molecule `O=C(N[C@@H]1CCCC[C@H]1N1Cc2ccc(-c3nnc(C(F)F)o3)cc2C1=O)OCCC(F)(F)F` [Example 132, 3,3,3-trifluoropropyl ((1R,2R)-2-(6-(5-(difluoromethyl)-1,3,4-oxadiazol-2-yl)-1-oxo-1,3-dihydro-2H-isoindol-2-yl)cyclohexyl)carbamate], the inhibition at 10 µM turned out to be 94%. For the molecule `O=C1c2cc(-c3nnc(C(F)F)o3)ccc2CN1c1ccccc1-c1ccc(C(F)(F)F)cc1` [Example 133, 6-(5-(difluoromethyl)-1,3,4-oxadiazol-2-yl)-2-(4′-(trifluoromethyl)biphenyl-2-yl)isoindolin-1-one], the inhibition at 10 µM is 93%. Still for that read-out and setting: the figure for `COc1ccc(-c2ccccc2N2Cc3ccc(-c4nnc(C(F)F)o4)cc3C2=O)cc1` [Example 134, 6-(5-(difluoromethyl)-1,3,4-oxadiazol-2-yl)-2-(4′-methoxybiphenyl-2-yl)isoindolin-1-one] is 101%; for `O=C1c2cc(-c3nnc(C(F)F)o3)cc(F)c2CN1Cc1ccccc1` [Example 136, 2-benzyl-6-(5-(difluoromethyl)-1,3,4-oxadiazol-2-yl)-4-fluoroisoindolin-1-one] it is 99%.

Regarding `O=C1CCCCN1[C@@H]1COCC[C@H]1N1Cc2c(F)cc(-c3nnc(C(F)F)o3)cc2C1=O` [Example 137, 6-(5-(difluoromethyl)-1,3,4-oxadiazol-2-yl)-4-fluoro-2-((3S,4R)-3-(2-oxopiperidin-1-yl)tetrahydro-2H-pyran-4-yl)isoindolin-1-one], the inhibition at 10 µM stood at 98%.
